From paper PMC12051620, “Molecular basis underlying the specificity of an antagonist AA92593 for mammalian melanopsins” (The Journal of Biological Chemistry, 2025)

Assays:
[1] = system: chicken Opn4-1 C94^2.61F/T188^ECL2S/A269^6.52S mutant; experiment: GsX GloSensor assay with Gsα/q11; format: cell-based; details: 16.7 μM AA92593, COS-1 cells
Text: (§1) The GsX GloSensor assay using Gsα/q11 of Xenopus Opn4x and chicken Opn4-1 detected the light-dependent Gq activation in both non-mammalian-type melanopsins (Fig. 6, A and D). […] The ineffectiveness of AA92593 is consistent with the fact that Phe-94^2.61, Ser-188^ECL2, and Ser-269^6.52 are not conserved among non-mammalian-type melanopsins (Figs. 2A, S2 and S3). If these three residues are important for the antagonistic effect against melanopsins, the introduction of Phe-94^2.61/Ser-188^ECL2/Ser-269^6.52 into the non-mammalian-type melanopsins would make them susceptible to AA92593. As expected, the substitutions of C94^2.61F/T188S^ECL2/A269^6.52S in Xenopus Opn4x and chicken Opn4-1 increased their sensitivity to AA92593 by ∼49% and ∼22%, respectively (Fig. 6, B and E, G–I). […]
(§2) For GloSensor assay, opsins, GloSensor assay sensor (coded by pGlo-22F), and NanoBiT-tagged G proteins were transiently expressed in COS-1 cells (kindly provided from Dr David Farrens, Oregon Health and Science University) using PEI as described previously ([24], [52]). […] For GFP-fluorescence microscopy, a 35-mm cell culture dish (IWAKI) was transfected with 2 μg melanopsin-GFP plasmid and 8 μg PEI in 400 μl Opti-mem and 1.2 ml D-MEM. […]

[2] = system: Xenopus Opn4x C94^2.61F/T188^ECL2S/A269^6.52S mutant; experiment: GsX GloSensor assay with Gsα/q11; format: cell-based; details: 16.7 μM AA92593, COS-1 cells
Text: as §1, §2

COc1ccc(S(=O)(=O)N2CCCCC2)cc1C [AA92593]
increase in sensitivity to AA92593 vs WT [1]: ~22% | increase in sensitivity to AA92593 vs WT [2]: ~49%
